biological target: T1, hROMK1 (Kir1.1) (Homo sapiens, UniProt P48048); assay: 86Rb+ Efflux Assay; format: cell-based; settings: CHO-DHFR- cells stably expressing hROMK1; 35 min incubation
T1 construct: expressed in transfected cells
T1 sequence (P48048 1-391): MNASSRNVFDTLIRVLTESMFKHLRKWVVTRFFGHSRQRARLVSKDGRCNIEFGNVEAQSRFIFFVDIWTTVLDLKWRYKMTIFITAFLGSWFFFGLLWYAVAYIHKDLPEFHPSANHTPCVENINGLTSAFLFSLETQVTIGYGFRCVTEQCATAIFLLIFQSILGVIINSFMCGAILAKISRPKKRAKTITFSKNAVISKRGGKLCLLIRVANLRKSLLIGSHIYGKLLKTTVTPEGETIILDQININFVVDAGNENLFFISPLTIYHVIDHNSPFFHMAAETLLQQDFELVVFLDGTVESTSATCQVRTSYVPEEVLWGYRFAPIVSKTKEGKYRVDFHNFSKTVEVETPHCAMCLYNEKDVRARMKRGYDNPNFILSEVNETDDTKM
Experimental: Several assays may be used to measure functional inhibition of the ROMK channel by compounds of the instant invention. One assay that was used to test the activity of compounds in the Examples is the functional ^86Rb^+ efflux assay described below, that measures the ability of ROMK to permeate ^86Rb^+, in the absence or presence of test compound. Under control conditions, cells loaded with ^86Rb^+ and incubated in Rb^+-free medium display a time-dependent efflux of the isotope, the rate of which depends on number of functional channels. When cells are incubated in the presence of a channel inhibitor, efflux of ^86Rb^+ is prevented in a concentration-dependent manner, and IC50 values of inhibition by compounds can be accurately determined. This assay has been established with cell lines expressing either human, rat or dog ROMK channels, and can operate in 96- or 384-well format. Importantly, the human, rat, and dog ^86Rb^+ efflux assays can be carried out in the presence of up to 100% serum allowing, therefore, an accurate estimation of the effect of protein binding on the inhibitory activity of compounds of interest. Another ROMK functional assay used to test the activity of compounds in the Examples (described below) makes use of the ability of thallium to permeate through open ROMK channels and increase the fluorescence of a dye previously loaded into the cells. Under control conditions, cells loaded with dye and exposed to thallium-containing medium display a time-dependent increase in fluorescence, the rate of which depends on number of functional channels. When cells are incubated in the presence of a channel inhibitor, the increase in fluorescence is attenuated in a concentration-dependent manner, and IC50 values of inhibition by compounds can be accurately determined. This assay has been established with cell lines expressing either human, or rat ROMK channels, and operates in 384-well format.
CHO-DHFR-cells stably expressing hROMK1 (Kir1.1) are grown at 37° C. in a 10% CO2 humidified incubator in Iscove's Modified Dulbecco's Medium (Gibco 12440) supplemented with HT Supplement, Penicillin/Streptomycin/Glutamine, G418 (500 μg/ml) and 10% FBS. Cells are seeded in Sterile and Tissue Culture Treated Packard CulturPlate White Opaque Microplates at a concentration of 5.0E5-7.0E5 cells/ml-PerkinElmer 6005680 (96-well); Corning 3707 (384 well) in complete media containing 1.5 μCi/ml Rubidium-86. Cells are incubated in 37° C.-10% CO2 incubator overnight. On the day of the experiment, the media is removed and cells are washed with low K assay buffer. ^86Rb^+ efflux is initiated after addition of assay buffer±test compound followed by 35 min incubation at room temperature. ROMK-sensitive component of efflux is defined in the presence of 10 mM BaCl2. Assay buffer is removed and transferred to a plate and cells are solubilized in the presence of SDS. Radioactivity associated with assay and cell plate is determined.
• 1. Remove cell media and wash cells with low K assay buffer (126.9 mM NaCl, 4.6 mM KCl, 2 mM CaCl2, 1 mM MgCl2, 10 mM Hepes/NaOH; pH 7.4) • 200 μl for 96-well plate; 70 μl for 384-well plate • 2. Add assay buffer (121.5 mM NaCl, 10 mM KCl, 2 mM CaCl2, 1 mM MgCl2, 10 mM Hepes/NaOH; pH 7.4)±test compound to cells • 100 μl for 96-well plate; 50 μl for 384-well plate • 3. Incubate at ambient temperature (22-24° C.) for 35 min • 4. Remove assay buffer add it to a 96- or 384-well plate containing Microscint-20 • 96-well Plate: 100 μl buffer, 170 μl MicroScint 20 (for TopCount) • 384-well plate: 20 μl buffer, 50 μl Optiphiase (for MicroLux) • 5. Completely remove remaining assay buffer from cell plate • 6. Solubilize cells with 1% SDS; than add MicroScint or Optiphase • 96-well Plate: 30 μl SDS, 170 μl MicroScint 20 (for TopCount) • 384-well plate: 20 μl SDS, 50 μl Optiphiase (for MicroLux) • 7. Seal both cell and supernatant plates and count Data Calculation— […]

**Q.** How did the IC50 turn out when `N#Cc1ccc2c(c1)CCC(N1CCN(C(=O)Cc3ccc(-n4cnnn4)cc3)CC1=O)C2` (racemic) [Example 56, 6-(2-Oxo-4-{[4-(1H-tetrazol-1-yl)phenyl]acetyl}piperazin-1-yl)-5,6,7,8-tetrahydronaphthalene-2-carbonitrile] was run?
**A.** 720 nM

**Q.** How did the IC50 turn out when `COc1cc(CCN2CCN(CCc3ccc([N+](=O)[O-])cc3)C(=O)C2)ccc1[N+](=O)[O-]` [Example 22, 4-[2-(3-Methoxy-4-nitrophenyl)ethyl]-1-[2-(4-nitrophenyl)ethyl]piperazin-2-one] was run?
**A.** 170 nM

**Q.** `N#Cc1ccc2c(c1)CCC(N1CCN(CCc3ccc4c(c3)CCOC4=O)CC1=O)C2` (racemic) [Example 42, 6-{2-Oxo-4-[2-(1-oxo-3,4-dihydro-1H-isochromen-6-yl)ethyl]piperazin-1-yl}-5,6,7,8-tetrahydronaphthalene-2-carbonitrile] was tested. Which IC50 did it give?
**A.** 300 nM

**Q.** How did the IC50 turn out when `N#Cc1ccc2c(c1)CCCC2CN1CCN(CCc2ccc3c(c2)COC3=O)CC1=O` (racemic) [Example 38, 5-({2-Oxo-4-[2-(1-oxo-1,3-dihydro-2-benzofuran-5-yl)ethyl]piperazin-1-yl}methyl)-5,6,7,8-tetrahydronaphthalene-2-carbonitrile] was run?
**A.** 140 nM

**Q.** `Cc1c(CCN2CCN(C3CCc4cc(C#N)ccc4C3)C(=O)C2)ccc2c1COC2=O` (racemic) [Example 30, 6-{4-[2-(4-Methyl-1-oxo-1,3-dihydro-2-benzofuran-5-yl)ethyl]-2-oxopiperazin-1-yl}-5,6,7,8-tetrahydronaphthalene-2-carbonitrile] was tested. Which IC50 did it give?
**A.** 310 nM

**Q.** `N#Cc1ccc2c(c1)CCC(N1CCN(CCc3ccc4c(=O)occc4c3)CC1=O)C2` (racemic) [Example 43, 6-{2-Oxo-4-[2-(1-oxo-1H-isochromen-6-yl)ethyl]piperazin-1-yl}-5,6,7,8-tetrahydronaphthalene-2-carbonitrile] was tested. Which IC50 did it give?
**A.** 210 nM

**Q.** How did the IC50 turn out when `N#Cc1ccc2c(c1)CCC(N1CCN(C3CCc4cc(C#N)ccc4C3)C(=O)C1)C2` (stereo not drawn) [Example 15, 6,6′-(2-Oxopiperazine-1,4-diyl)di(5,6,7,8-tetrahydronaphthalene-2-carbonitrile)] was run?
**A.** 51 nM

**Q.** Which IC50 does the source give for `O=C1CN(CCc2ccc([N+](=O)[O-])c(C(F)(F)F)c2)CCN1CCc1ccc([N+](=O)[O-])cc1` [Example 3, 1-[2-(4-Nitrophenyl)ethyl]-4-{2-[4-nitro-3-(trifluoromethyl)phenyl]ethyl}piperazin-2-one] here?
**A.** 740 nM

**Q.** How did the IC50 turn out when `N#Cc1c(F)ccc2c1CCC2CN1CCN(CCc2ccc3c(c2)COC3=O)CC1=O` (stereo not drawn) [Example 34, 5-Fluoro-1-({2-oxo-4-[2-(1-oxo-1,3-dihydro-2-benzofuran-5-yl)ethyl]piperazin-1-yl}methyl)-2,3-dihydro-1H-indene-4-carbonitrile] was run?
**A.** 360 nM

**Q.** With `COc1ccc(CCN2CCN(CCc3ccc4c(c3)COC4=O)C(=O)C2)cc1C#N` [Example 32, 2-Methoxy-5-(2-{3-oxo-4-[2-(1-oxo-1,3-dihydro-2-benzofuran-5-yl)ethyl]piperazin-1-yl}ethyl)benzonitrile] as the compound, how does the IC50 read?
**A.** 460 nM

**Q.** How did the IC50 turn out when `O=C1CN(CCc2ccc([N+](=O)[O-])cc2)CCN1CCc1ccc2nonc2c1` [Example 24, 1-[2-(2,1,3-Benzoxadiazol-5-yl)ethyl]-4-[2-(4-nitrophenyl)ethyl]piperazin-2-one] was run?
**A.** 550 nM

**Q.** Which IC50 does the source give for `N#Cc1ccc2c(c1)CCC(N1CCN(CCc3ccc4nonc4c3)C(=O)C1)C2` (racemic) [Example 14, 6-{4-[2-(2,1,3-Benzoxadiazol-5-yl)ethyl]-3-oxopiperazin-1-yl}-5,6,7,8-tetrahydronaphthalene-2-carbonitrile] here?
**A.** 820 nM

**Q.** For `N#Cc1ccc(CCN2CCN(CCc3ccc4c(c3)COC4=O)CC2=O)cc1Cl` [Example 36, 2-Chloro-4-(2-{2-oxo-4-[2-(1-oxo-1,3-dihydro-2-benzofuran-5-yl)ethyl]piperazin-1-yl}ethyl)benzonitrile], which IC50 is on record?
**A.** 110 nM

**Q.** `O=C1OCc2cc(CCN3CCN(CCc4ccc5nonc5c4)C(=O)C3)ccc21` [Example 27, 1-[2-(2,1,3-Benzoxadiazol-5-yl)ethyl]-4-[2-(1-oxo-1,3-dihydro-2-benzofuran-5-yl)ethyl]piperazin-2-one] was tested. Which IC50 did it give?
**A.** 870 nM

**Q.** For `N#Cc1ccc(CCN2CCN(C3CCc4cc(C#N)ccc4C3)C(=O)C2)cc1` (racemic) [Example 25, 6-{4-[2-(4-Cyanophenyl)ethyl]-2-oxopiperazin-1-yl}-5,6,7,8-tetrahydronaphthalene-2-carbonitrile], which IC50 is on record?
**A.** 240 nM

**Q.** `N#Cc1cccc2c1CCCC2CN1CCN(CCc2ccc3c(c2)COC3=O)CC1=O` (racemic) [Example 33, 5-((2-oxo-4-(2-(1-oxo-1,3-dihydroisobenzofuran-5-yl)ethyl)piperazin-1-yl)methyl)-5,6,7,8-tetrahydronaphthalene-1-carbonitrile] was tested. Which IC50 did it give?
**A.** 150 nM

**Q.** With `O=C1CN(CCc2ccc([N+](=O)[O-])c(F)c2)CCN1CCc1ccc2nonc2c1` [Example 20, 1-[2-(2,1,3-Benzoxadiazol-5-yl)ethyl]-4-[2-(3-fluoro-4-nitrophenyl)ethyl]piperazin-2-one] as the compound, how does the IC50 read?
**A.** 170 nM

**Q.** Which IC50 does the source give for `COc1cc([N+](=O)[O-])ccc1CCN1CCN(CCc2ccc3nonc3c2)C(=O)C1` [Example 10, 1-[2-(2,1,3-Benzoxadiazol-5-yl)ethyl]-4-[2-(2-methoxy-4-nitrophenyl)ethyl]piperazin-2-one] here?
**A.** 370 nM

**Q.** Which IC50 does the source give for `COC(=O)c1cc([N+](=O)[O-])ccc1CCN1CCN(CCc2ccc([N+](=O)[O-])cc2)C(=O)C1` [Example 7, Methyl 5-nitro-2-(2-{4-[2-(4-nitrophenyl)ethyl]-3-oxopiperazin-1-yl}ethyl)benzoate] here?
**A.** 390 nM

**Q.** With `N#Cc1ccc2c(c1)CCC(N1CCN(C(=O)C3CCc4cc(-n5cnnn5)ccc43)CC1=O)C2` (stereo not drawn) [Example 57, 6-(2-Oxo-4-{[5-(1H-tetrazol-1-yl)-2,3-dihydro-1H-inden-1-yl]carbonyl}piperazin-1-yl)-5,6,7,8-tetrahydronaphthalene-2-carbonitrile] as the compound, how does the IC50 read?
**A.** 800 nM

**Q.** With `COC(=O)c1cc(CCN2CCN(CCc3ccc([N+](=O)[O-])cc3)C(=O)C2)ccc1[N+](=O)[O-]` [Example 8, Methyl 2-nitro-5-(2-{4-[2-(4-nitrophenyl)ethyl]-3-oxopiperazin-1-yl}ethyl)benzoate] as the compound, how does the IC50 read?
**A.** 250 nM

**Q.** For `N#Cc1ccc2c(c1)CCC(N1CCN([C@H]3CCc4cc(C#N)ccc4C3)C(=O)C1)C2` (stereo partly drawn) [Example 16, (6S)-6,6′-(2-oxopiperazine-1,4-diyl)-di-(5,6,7,8-tetrahydronaphthalene-2-carbonitrile)], which IC50 is on record?
**A.** 100 nM

**Q.** `N#Cc1ccc(CCN2CCN(CCc3ccc4c(c3)COC4=O)CC2=O)cc1Br` [Example 35] was tested. Which IC50 did it give?
**A.** 170 nM

**Q.** How did the IC50 turn out when `N#Cc1cc(CCN2CCN(CC(F)c3ccc4c(c3)COC4=O)CC2=O)ccc1F` (racemic) [Example 39, 2-Fluoro-5-(2-{4-[2-fluoro-2-(1-oxo-1,3-dihydro-2-benzofuran-5-yl)ethyl]-2-oxopiperazin-1-yl}ethyl)benzonitrile] was run?
**A.** 910 nM

Source: US8999990B2, “Inhibitors of the renal outer medullary potassium channel” (Merck Sharp & Dohme Corp., priority 2011, dated 2015)
